Where two headings read alike, the source gives them in different places.
Experiments:
[1] = Influence on pancreatic secretion of the narcotized rat; type: in vivo, rat (male Sprague-Dawley); settings: in vivo, LD50 mouse i.p. / ED50 rat i.d.
Text: (§1) Male Sprague-Dawley rats (body weight from 250 to 300 g) are narcotized with 1.2 g/kg urethane i.m. Then the abdominal cavity is opened medially, the bile duct is ligatured shortly above the place where it leads into the duodenum and also near to the hepatic duct, and both sections are catheterized towards the liver.
(§2) As in the rat all the pancreatic ducts lead out into the central section of the bile duct; it is possible in this way to discharge the pancreatic secretion separately from the distal (ligatured) section and the bile separately from the proximal section of the bile duct.
(§3) The quantities of pancreatic juice and bile juice obtained are measured at intervals of 30 minutes over a period from 2 hours before to 3 hours after the intraduodenal (V. jugularis externa) administration of the compounds to be tested (quantity of liquid administered 5 ml/kg).
(§4) The body temperature of the animals is maintained at 36° to 38° C. by means of electric blankets and radiation; the temperature is monitored rectally.
(§5) The liquid volumes of the 30-minute fractions after the administration of the substance are related in each case to the quantity of bile or pancreatic juice secreted prior to the application of the substance (=100%, mean of the last two measurements). The maximum percentage increase in the pancreatic or bile secretion is represented in dependence upon dose, and from this the ED50 is determined by interpolation.

pancreatic secretion = assay: as above; type: in vivo, rat (male Sprague-Dawley); settings: 0.5 h
Text: as §1, §2, §3, §4, §5

[2] = Influence on bile secretion (choleresis) of the narcotized rat; type: in vivo, rat (male Sprague-Dawley); settings: in vivo, LD50 mouse i.p. / ED50 rat i.d.
Text: as §1, §2, §3, §4, §5

bile secretion = assay: as above; type: in vivo, rat (male Sprague-Dawley); settings: 0.5 h, liquid volume
Text: as §1, §2, §3, §4, §5

[3] = Antihepatotoxic effect: duration of hexobarbital sleep of the rat after liver damage by CCl4; settings: rat, in vivo
Experimental: (§6) The compounds to be tested are administered 1 hour prior to the administration of CCl4 orally in a liquid volume of 10 ml/kg.
(§7) The antihepatotoxic effect of the compounds to be tested (sodium salts in aqueous solution) is determined by the reduction of the prolongation of sleeping period caused by the CCl4 liver cell damage in the groups treated, as compared with the prolongation of the sleeping period of the CCl4 control group (=100%). […]

liver damage by CCl4 = assay: as above; settings: Rattus norvegicus, po; for ED25: read-out: ED25 antihepatotoxic effect (shortens hexobarbital narcosis by 25%)
Experimental: as §6, §7

[4] = Determination of toxicity (lethal action on the mouse after intraperitoneal application); type: in vivo; settings: in vivo, ip
Experimental: The toxicity investigations are carried out on female NMRI mice (body weight 22 to 26 g). The animals (5 animals per dose) are given food and water ad lib. Different doses of the substances are administered intraperitoneally. The duration of observation is 14 days. The LD50, i.e. the dose at which 50% of the animals die, is determined graphically from the dose/effect curve.

[5] = Antiulcerogenic (stomach-protective) action, pylorus ligature and acetylsalicylic acid; type: in vivo, rat (female); settings: in vivo; LD50 mouse i.p. / ED50 rat i.d.; Table IV; read-out: TQ (LD50/ED50), antiulcerogenic action
Experimental: (§8) The ulcer provocation is carried out on rats which have been made to fast for 24 hours (female, 180 to 200 g) by ligature of the pylorus (under ether narcosis) and the oral application of 100 mg/10 ml/kg acetylsalicylic acid. The administration of the substances was carried out intraduodenally (2.5 ml/kg) immediately after the ligature of the pylorus. The closure of the wound was carried out by means of Michel clamps. 4 hours after this, the animals were autopsied (while inebriated with ether) by dislocation of the atlas, and the stomach was resected. The stomach, opened longitudinally, is fixed on a cork board and, using a stereomicroscope with an enlargement of 10×, the number and size (=diameter) of any ulcers present were determined. The product of the degree of severity (according to the following scale of points) and the number of ulcers was used as the individual ulcer index.
(§9) As a measure of antiulcerogenic effect the reduction in the mean ulcer index of each treated group, as compared with that of the control group (=100%), was used.

stomach ulcer = assay: as above; type: in vivo, rat (female); settings: 4 h; rat, intraduodenally; Table IV; read-out: ED50 antiulcerogenic action (dose which reduces the mean ulcer index by 50%)
Experimental: as §8, §9

[6] = Table I, read-out: TQ (LD50/ED50), pancreatic secretion
[7] = Rattus norvegicus, read-out: ED50 pancreatic secretion (dose which brings about an increase in the pancreatic secretion by a maximum of 50%)
[8] = Table II, read-out: TQ (LD50/ED50), bile secretion
[9] = narcotized rat, i.d., 30 min fraction, Table II, read-out: ED50 bile secretion (dose which brings about an increase in the bile secretion by a maximum of 50%)
[10] = TQ (LD50/ED50), antihepatotoxic effect, LD50 mouse i.p. / ED50 rat p.o., Table III
[11] = read-out: ED50 antihepatotoxic effect (dose which shortens the hexobarbital narcosis by 50%)
[12] = Table VII, read-out: TQ [LD50/ED50], pancreatic secretion
[13] = narcotized rat, i.d., liquid volume, 30 min fraction, Table VII, read-out: ED50 pancreatic secretion (dose which brings about an increase in pancreatic secretion of a maximum of 50%)
[14] = Table VI, read-out: TQ (LD50/ED50), bile secretion
[15] = narcotized rat i.d., 30 min fraction, Table VI, read-out: ED50 bile secretion (dose which brings about an increase in the bile secretion by a maximum of 50%)
[16] = TQ LD50/ED25, antihepatotoxic effect, LD50 mouse i.p. / ED25 rat p.o., Table V
[17] = TQ LD50/ED50, antihepatotoxic effect, LD50 mouse i.p. / ED50 rat p.o., Table V
[18] = read-out: ED50 antihepatotoxic effect (shortens hexobarbital narcosis by 50%)

Compound | selectivity ratio [1, 6] | ED50 (pancreatic secretion; [7]) | selectivity ratio [2, 8] | ED50 (bile secretion; [9]) | selectivity ratio [3, 10] | ED50 (liver damage by CCl4; [11]) | LD50 at 336 h ([4]; mouse, Table I) | other results
CC(=O)N(CCCC(=O)O)C(c1ccccc1)c1ccccc1 [Serial No. 14, N-acetyl-4-benzhydrylaminobutyric acid] | ~220 | ~5 mg/kg | 220 | 5 mg/kg | 110 | 10 mg/kg | 1100 mg/kg | 
O=C(O)CCCN(C(=O)c1ccc(Cl)cc1)C(Cc1ccccc1)c1ccccc1 (stereo not shown) [Serial No. 17, N-(p-chloro)benzoyl-4-[(1,2-diphenylethyl)amino]butyric acid] | ~160 | ~1 mg/kg | 32 | 5 mg/kg | 16 | 10 mg/kg | 160 mg/kg | 
CC(c1ccccc1)N(CCCC(=O)O)C(=O)c1ccc(Cl)cc1 (racemic) [Serial No. 10, N-(p-chloro)benzoyl-4-(1-phenylethylamino)butyric acid] | ~60 | ~20 mg/kg | ~80 | ~15 mg/kg | ~120 | ~10 mg/kg | 1200 mg/kg | 
COc1ccc(CCN(CCCC(=O)O)C(=O)c2ccc(Cl)cc2)cc1OC [Serial No. 9, N-(p-chloro)benzoyl-4-homoveratrylaminobutyric acid] | 156 | 5 mg/kg | 43 | 18 mg/kg | 7.8 | 100 mg/kg | 780 mg/kg | 
CC(=O)N(CCCC(=O)O)c1ccccc1-c1ccccc1 [Serial No. 22, 4-[N-(biphenyl-2-yl)acetamido]butyric acid] |  |  |  |  |  |  |  | selectivity ratio [1, 12]: ~375; ED50 (pancreatic secretion; [13]): ~2 mg/kg; selectivity ratio [2, 14]: 93.8; ED50 (bile secretion; [15]): 8 mg/kg; selectivity ratio [3, 16]: > 250; selectivity ratio [3, 17]: 50; ED25 (liver damage by CCl4): < 3 mg/kg; ED50 (liver damage by CCl4; [18]): 15 mg/kg; LD50 at 336 h ([4]; mouse, Table IV): 750 mg/kg; selectivity ratio [5]: 13.6; ED50 (stomach ulcer): 55 mg/kg
C#CC1(N(CCCC(=O)O)C(=O)c2ccc(Cl)cc2)CCCCC1 [Serial No. 5, N-(p-chloro)benzoyl-4-[(1-ethynylcyclohexyl-1)-amino]butyric acid] | 95 | 2 mg/kg | 32 | 6 mg/kg |  |  | 190 mg/kg | 
CC(C)(C)N(CCCC(=O)O)C(=O)c1ccc(Cl)cc1 [Serial No. 2, N-(p-chloro)benzoyl-4-(tert.-butylamino)butyric acid] |  |  | 57 | 15 mg/kg |  |  |  | LD50 at 336 h ([4]; mouse, Table II): 850 mg/kg
CC=CC(=O)N(CCCC(=O)O)c1ccccc1-c1ccccc1 [Serial No. 27, 4-[N-(biphenyl-2-yl)crotonoylamido]butyric acid] |  |  |  |  |  |  |  | selectivity ratio [2, 14]: 30; ED50 (bile secretion; [15]): 10 mg/kg; selectivity ratio [3, 16]: 188; selectivity ratio [3, 17]: 107; ED25 (liver damage by CCl4): 1.6 mg/kg; ED50 (liver damage by CCl4; [18]): 2.8 mg/kg; LD50 at 336 h ([4]; mouse, Table IV): 300 mg/kg; selectivity ratio [5]: ~5.5; ED50 (stomach ulcer): ~55 mg/kg
COc1cc(C(=O)N(CCCC(=O)O)c2cccc3ccccc23)cc(OC)c1OC [Serial No. 40, 4-{3,4,5-trimethoxy-[N-(α-naphthyl)]benzamido}butyric acid] |  |  |  |  |  |  |  | selectivity ratio ([2]; Table XII, read-out: TQ LD50/ED50, bile secretion): 45; ED50 (bile secretion; narcotized rat i.d., 30 minute fraction, Table XII, read-out: ED50 bile secretion (dose which brings about an increase in bile secretion by a maximum of 50%)): 8 mg/kg; selectivity ratio ([3]; TQ LD50/ED25, antihepatotoxic effect, LD50 mouse i.p. / ED25 rat p.o., Table XI): 21.2; selectivity ratio ([3]; TQ LD50/ED50, antihepatotoxic effect, LD50 mouse i.p. / ED50 rat p.o., Table XI): ≤ 12; ED25 (liver damage by CCl4): 17 mg/kg; ED50 (liver damage by CCl4; [18]): ≥ 30 mg/kg; LD50 at 336 h ([4]; mouse i.p., Table XI): 360 mg/kg
CCC(C)(C)N(CCCC(=O)O)C(=O)c1ccc(Cl)cc1Cl [Serial No. 11, N-(2,4-dichloro)benzoyl-4-[(1,1-dimethylpropyl)amino]butyric acid] |  |  | 32 | 6 mg/kg |  |  |  | LD50 at 336 h ([4]; mouse, Table II): 190 mg/kg
C#CC(CC)(CC)N(CCCC(=O)O)C(=O)c1ccc(Cl)cc1 [Serial No. 4, N-(p-chloro)benzoyl-4-[(3-ethyl-1-pentyn-3-yl)amino]butyric acid] |  |  | ~40 | ~5 mg/kg |  |  |  | LD50 at 336 h ([4]; mouse, Table II): 200 mg/kg
COc1ccc(Cl)cc1C(=O)N(CCCC(=O)O)c1ccc(OC)c(-c2ccccc2)c1 [Serial No. 36, 4-[2-methoxy-5-chloro-N-(6-methoxybiphenyl-3-yl)benzamido]butyric acid] |  |  |  |  |  |  |  | selectivity ratio [1, 12]: 38; ED50 (pancreatic secretion; [13]): 5 mg/kg; selectivity ratio [2, 14]: 190; ED50 (bile secretion; [15]): 1 mg/kg; LD50 at 336 h ([4]; mouse i.p., Table VI): 190 mg/kg
CC(C)(C)CC(C)(C)N(CCCC(=O)O)C(=O)c1ccc(F)cc1 [Serial No. 16, N-(p-fluoro)benzoyl-4-(1,1,3,3-tetramethylbutyl)aminobutyric acid] | ~40 | ~10 mg/kg | 57 | 7 mg/kg |  |  | 400 mg/kg | 

Reference: patent US4243678A, “Acylhydrocarbylaminoalkanoic acids, compositions and uses” (Byk Gulden Lomberg Chemische Fabrik GmbH, priority 1977, dated 1981)
